{
  "source": "patent US20240158418A1",
  "about": "(C4 Therapeutics, Inc., priority 2021, published 2024)",
  "key": {"mutant EGFR-L858R-T790M": {"target": "T1, mutant EGFR-L858R-T790M (Homo sapiens, UniProt P00533, L858R/T790M)", "T1 construct": "female BALB/c nude mice bearing NCI-H1975 NSCLC tumors; from tissue; host or cells: NCI-H1975 subcutaneous xenograft tumours from female BALB/c nude mice", "assay": "Mutant EGFR protein in NCI-H1975 tumors after single oral dose (western blot)", "type": "in vivo, female BALB/c nude mice", "experimental": "Compound 1 was administered as a single oral (PO) dose at 10, 25, or 50 mg/kg to female BALB/c nude mice with NCI-H1975 tumors. At 4h, 6h or 12h tumors were harvested and the protein expression of mutant EGFR-L858R and phospho-EGFR was measured by western blot.\nA xenograft study was conducted in female BALB/c nude mice bearing NCI-H1975 NSCLC tumors. Female nude mice were inoculated subcutaneously in the right flank with 5×10^6 tumors cells in 0.1 mL of PBS. Tumor volume was measured twice weekly in two dimensions using calipers, and volume (mm^3) was calculated using the formula: V=0.5 a×b2 where a and b are the long and short diameters of the tumor in mm, respectively. […]\nAll agents were administered to mice bearing NCI-H1975 tumors on day 0 as a single oral (PO) dose. […] Protein concentration was quantified using a Pierce™ BCA Protein Assay Kit, samples were reduced, and equal protein amounts were then loaded onto a western blot gel for analysis. Tumors were analyzed for EGFR Receptor L858R Mutant Specific (CST, 3197) or Phospho-EGFR Receptor Tyr1068 (CST, 2234) expression. The intensity of individual bands was measured for data analysis using Image Studio software. Protein expression was quantitated in relation to the reference protein, alpha-tubulin, to control for total protein concentration. […]"}, "[1]": {"system": "intracranial NCI-H1975-luciferase expressing NSCLC tumors", "assay": "NCI-H1975-luc intracranial tumor model (intracranial injection into forebrain)", "type": "in vivo, female BALB/c nude mice", "settings": "100 mg/kg/day PO BID", "experimental": "Compound 1 efficacy in a NCI-H1975-luciferase expressing intracranial tumor model established by injecting tumor cells intracranially into the mouse forebrain was evaluated at […]: 100 mg/kg/day. Compound 1 was administered BID (twice a day) orally (PO). Eight mice were used per group.\n2×10^5 luciferase-expressing NCI-H1975-luc tumor cells suspended in 2 μL RPMI-1640 media were injected into the right forebrain of female BALB/c nude mice. Tumor growth was monitored using imaging analysis. Mice were injected intraperitoneally with 15 mg/mL of D-luciferin and anesthetized with 1-2% isoflurane inhalation. 10 minutes post luciferin injection, mice were imaged using IVIS Lumina III (Perkin Elmer) and total bioluminescence signal (BLI, photons/s) was measured in a region of interest (ROI). BLI from ROI were quantified and used as an indicator of tumor burden. 7 days post tumor cell inoculation mice were randomized into groups of 8 with a mean BLI of 27×10^6 photons/s. All agents were administered to mice bearing NCI-H1975-luc brain tumors on day 8. […] Body weight and MTV were measured on a 2× weekly schedule. Statistical analysis was calculated using the Mann-Whitney U test. Data are expressed as bioluminescent signal (photons/s)."}},
  "note": "“Also recorded” adds a separate entry of the source.",
  "data": [
    {"smiles": "O=C1CC[C@H](Nc2ccc(N3CCC(O)(CC(=O)N4CC5(C4)CN(c4ccc(-c6cc(F)c7c(c6)C(=O)N(C(C(=O)Nc6nccs6)c6ncn8c6CCC8)C7)cc4)C5)CC3)c(F)c2)C(=O)N1", "note": "(stereo partly drawn) [Compound 1, 2-(6,7-dihydro-5H-pyrrolo[1,2-c]imidazol-1-yl)-2-[6-[4-[2-[2-[1-[4-[[(3S)-2,6-dioxo-3-piperidyl]amino]-2-fluoro-phenyl]-4-hydroxy-4-piperidyl]acetyl]-2,6-diazaspiro[3.3]heptan-6-yl]phenyl]-4-fluoro-1-oxo-isoindolin-2-yl]-N-thiazol-2-yl-acetamide]", "values": [
      {"measurement": "mutant EGFR degraded in vivo", "setting": "mutant EGFR-L858R-T790M; after a single oral dose, NCI-H1975 tumors", "value": "up to 85%"},
      {"measurement": "mutant EGFR-L858R protein expression in tumors", "setting": "mutant EGFR-L858R-T790M; single PO dose 10, 25 or 50 mg/kg, 4, 6 and 12 hours", "value": "potent EGFR degradation"},
      {"measurement": "Statistical Significance Compared to Vehicle", "setting": "[1]; NCI-H1975-luc cells intracranial", "value": 0.001},
      {"measurement": "efficacy on NCI-H1975-luc BLI (tumor burden)", "setting": "[1]; intracranial forebrain model, 100 mg/kg/day", "value": "reduced tumor volume; also recorded: tumor regression"}
    ]}
  ]
}
